From patent US20030229079A1 (published 2003) come the findings set out here.

By melting point is commonly meant the temperature of the solid-liquid transition.

As for `O=C(CC(=O)c1cccn1Cc1ccc(F)cc1)c1ccncn1`, the melting point was 128 to 129 °C.
